Values quoted from earlier work, collected in patent publication US20050255049A1, “Formoterol and mometasone aerosol formulations” (priority 2002, published 2005).

Details: stated in the background

density: 1.4 g cm^−3
Structure (SMILES): C[C@@H]1C[C@H]2[C@@H]3CCC4=CC(=O)C=C[C@]4(C)[C@@]3(Cl)[C@@H](O)C[C@]2(C)[C@@]1(OC(=O)c1ccco1)C(=O)CCl [mometasone furoate, (11 beta, 16alpha)-9,21-dichloro-17-[(2-furanylcarbonyl)oxy]-11-hydroxy-16-methylpregna-1,4-diene-3,20-dione]
